Where “and” joins values, the source holds several entries; their conditions need not be identical. Equal values may be shown once.
Columns and labels:
[1] = tested on: p65 (RelA) nuclear translocation in THP-1 cells; assay: Indirect immunofluorescence for NF-κB nuclear translocation; assay type: cell-based, human; conditions: pretreated 1 h, LPS 30 min; Bay 11-7082 10 μM
Protocol: (§1) THP-1 cells were maintained in RPMI 1640 medium supplemented with 10% complement-inactivated FBS and 1% penicillin/streptomycin (complete culture medium) at 37° C. with 5% CO2 supplemented. Cell concentrations were adjusted to desired concentrations for each experiment by centrifugation at 500×g for 5 min and resuspended in complete culture medium with 100 nM of PMA. Cell concentration was adjusted to 5×10^5 cells/ml for all assays and 2.5×10^5 cells/ml were used for NF-κB nuclear translocation assay. Cells were seeded onto 96-, 24-, or 12-well plates and incubated for 48 to 72 h to allow for differentiation. Cells were washed with serum-free RPMI 1640 medium before each experiment to remove the undifferentiated cells.
Differentiated THP-1 cells were pretreated with 50 μM of cis-gnetin H, trans-gnetin H, or 10 μM of Bay 11-7082 for 1 h and stimulated with 1 μg/ml of LPS for 30 min. Bay 11-7082 is a compound that inhibits IKK α/β and IκB α phosphorylation and was used as a positive control (Juliana et al., 2010, J. Biol. Chem., 285:9792-802). Treated cells were fixed, permeabilized, blocked, and stained with NF-κB, p65 primary antibody, Dylight 488 conjugated secondary antibody, and Hoechst 33342 dye, sequentially. The Hoechst and DyLight fluorophores detect changes in nuclear morphology (blue fluorescence) and NF-κB distribution (green fluorescence) respectively. Nuclear Translocation Bioapplication software on the Arrayscan VTI reader was used for image acquisition and analysis. For each well, at least 400 cells were automatically acquired and analyzed. The translocation index was calculated by measuring the average intensity difference of NF-icB between the identified cytoplasmic region and nuclear region.

[2] = tested on: IL-8 in LPS-stimulated THP-1 cells; assay: Cytokine response by ELISA, IL-8; assay type: cell-based, human; conditions: Homo sapiens, THP-1; 1 μM, 20 ng/ml LPS 4 h
Protocol: as §1
(§2) Differentiated THP-1 cells were pretreated with various concentrations of cis-gnetin H, trans-gnetin H, or 1 μM of dexamethasone for 1 h and stimulated with 20 ng/ml of LPS for 4 h. Dexamethasone is a synthetic glucocorticoid that suppresses cytokine response and was used as a positive control (Abraham et al., 2006, J. Exp. Med., 203:1883-9; Steer et al., J. Biol. Chem., 2000, 275(24):18432-40). Supernatants were collected for human cytokine ELISAs and the manufacturer's protocol was followed to assess the cytokine response. Cells remaining after the supernatant collection were tested for relative viability by Alamar Blue cytotoxicity assay as described earlier.

[3] = tested on: TNF-α in LPS-stimulated THP-1 cells; assay: Cytokine response by ELISA, TNF-α; assay type: cell-based, human; conditions: Homo sapiens, THP-1; 1 μM, 20 ng/ml LPS 4 h
Protocol: as §1, §2

[4] = tested on: IL-1β in LPS-stimulated THP-1 cells; assay: Cytokine response by ELISA, IL-1β; assay type: cell-based, human; conditions: Homo sapiens, THP-1; 1 μM, 20 ng/ml LPS 4 h
Protocol: as §1, §2

[5] = tested on: A549 lung cancer cell line; conditions: literature values; read-out: IC50 against the A549 lung cancer cell line; cited from earlier work

With Cc1ccc(S(=O)(=O)C=CC#N)cc1 [Bay 11-7082, 3-(4-methylphenylsulfonyl)-2-propenenitrile, reference compound] the p65 nuclear translocation [1] was “inhibited the p65 nuclear translocation”.
In the case of C[C@@H]1C[C@H]2[C@@H]3CCC4=CC(=O)C=C[C@]4(C)[C@@]3(F)[C@@H](O)C[C@]2(C)[C@@]1(O)C(=O)CO [Dexamethasone, dexamethasone, reference compound], the inhibition at 1 µM [2] is reported as 63%, the inhibition at 1 µM [3] is reported as 58% and the inhibition at 1 µM [4] is reported as 56%.
In the case of Oc1ccc(C=Cc2cc(O)cc(O)c2)cc1 [Resveratrol, 3,5,4′-trihydroxystilbene], the IC50 [5] is given as 8.9 µM and > 10 µM.
